Data: patent publication US20080306007A1, “AGENTS FOR PROPHYLAXIS OR TREATMENT OF NEUROLOGICAL RELATED DISEASES AND CONDITIONS” (Newcastle Innovation Limited, priority 2007, published 2008)

Tests used:
[1] = target: T1, Syndapin I binding to DynI-PRD (Rattus norvegicus, UniProt Q9Z0W5); assay: GST-DynI-PRD pull-down from rat brain lysate with peptide competition: syndapin I; settings: increasing amounts of peptide
T1 construct: from tissue; host or cells: target from total rat brain extract; GST-DynI-PRD made in house in Escherichia coli
T1 sequence (Q9Z0W5 whole entry): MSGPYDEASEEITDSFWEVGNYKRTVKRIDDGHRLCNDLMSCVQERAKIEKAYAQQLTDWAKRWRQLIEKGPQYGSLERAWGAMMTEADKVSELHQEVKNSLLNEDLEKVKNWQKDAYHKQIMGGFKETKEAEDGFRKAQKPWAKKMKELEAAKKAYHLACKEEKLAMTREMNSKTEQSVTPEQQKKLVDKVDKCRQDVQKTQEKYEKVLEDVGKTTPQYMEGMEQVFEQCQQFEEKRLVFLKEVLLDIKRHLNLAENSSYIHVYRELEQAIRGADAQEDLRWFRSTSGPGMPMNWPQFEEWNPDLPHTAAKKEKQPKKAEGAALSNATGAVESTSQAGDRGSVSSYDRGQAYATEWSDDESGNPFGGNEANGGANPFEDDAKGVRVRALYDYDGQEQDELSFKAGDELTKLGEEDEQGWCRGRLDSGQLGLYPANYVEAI
Experimental: (§1) Total rat brain extract was prepared by homogenising brain tissue in ice-cold lysis buffer (1% Triton X-100, 150 mM NaCl, 25 mM Tris pH 7.4, 1 mM EDTA, 1 mM EGTA, 20 μg/ml leupeptin, 1 mM phenylmethylsulfonyl fluoride and EDTA-free Complete protease inhibitor (Roche)). The homogenate was centrifuged twice at 75,600 g for 30 min at 4° C. The supernatant was pre-cleared by addition of GSH-sepharose beads for 1 h, pelleted at 50 g for 5 min at 4° C., and the supernatant collected. GST-DynI-PRD recombinant proteins were then incubated with an equal amount of tissue lysate at 4° C. for 1 h. Beads were washed extensively with ice-cold 20 mM Tris pH 7.4 containing 1 mM EGTA, eluted in 2×SDS-PAGE sample buffer, resolved on 7.5-15% gradient SDS gels and stained with colloidal Coomassie Blue. Identification of proteins was by matrix-assisted laser desorption ionization time-of-flight mass spectrometry (MALDI-TOF MS). Some peptides were sequenced by tandem MS/MS.
(§2) A common characteristic of most binding sites for SH3 domains is the presence of the core amino acid motif PxxP, which is often followed or preceded by a basic Arg residue. There are 13 such motifs in the dynamin I PRD (numbered from site 1 at the N-terminus of the PRD at Pro-753 in dynamin I). […]

[2] = target: T2, endophilin I binding to DynI-PRD (Rattus norvegicus, UniProt O35179); assay: GST-DynI-PRD pull-down with peptide competition: endophilin I; settings: increasing amounts of peptide
T2 construct: from tissue; host or cells: target from total rat brain extract; GST-DynI-PRD made in house in Escherichia coli
T2 sequence (O35179 whole entry): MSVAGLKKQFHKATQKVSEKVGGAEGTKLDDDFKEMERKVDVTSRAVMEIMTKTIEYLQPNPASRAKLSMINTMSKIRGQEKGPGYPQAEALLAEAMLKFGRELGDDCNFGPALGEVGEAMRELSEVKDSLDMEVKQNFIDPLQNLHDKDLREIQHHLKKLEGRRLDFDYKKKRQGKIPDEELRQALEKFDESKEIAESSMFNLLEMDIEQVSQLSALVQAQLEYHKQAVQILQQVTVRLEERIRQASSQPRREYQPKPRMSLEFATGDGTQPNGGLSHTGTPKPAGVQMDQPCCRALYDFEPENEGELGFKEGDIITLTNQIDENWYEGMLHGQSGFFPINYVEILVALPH
Experimental: as §1, §2

[3] = system: p85 (the regulatory subunit of PI-3 kinase); assay: GST-DynI-PRD pull-down with peptide competition: p85; assay type: binding, rat; settings: increasing amounts of peptide
Experimental: as §1, §2

[4] = target: T3, amphiphysin I binding to DynI-PRD (Rattus norvegicus, UniProt O08838); assay: GST-DynI-PRD pull-down with peptide competition: amphiphysin I
T3 construct: it is full-length amphiphysin I being detected in the present study; from tissue; host or cells: target from total rat brain extract; GST-DynI-PRD made in house in Escherichia coli
T3 sequence (O08838 1-683): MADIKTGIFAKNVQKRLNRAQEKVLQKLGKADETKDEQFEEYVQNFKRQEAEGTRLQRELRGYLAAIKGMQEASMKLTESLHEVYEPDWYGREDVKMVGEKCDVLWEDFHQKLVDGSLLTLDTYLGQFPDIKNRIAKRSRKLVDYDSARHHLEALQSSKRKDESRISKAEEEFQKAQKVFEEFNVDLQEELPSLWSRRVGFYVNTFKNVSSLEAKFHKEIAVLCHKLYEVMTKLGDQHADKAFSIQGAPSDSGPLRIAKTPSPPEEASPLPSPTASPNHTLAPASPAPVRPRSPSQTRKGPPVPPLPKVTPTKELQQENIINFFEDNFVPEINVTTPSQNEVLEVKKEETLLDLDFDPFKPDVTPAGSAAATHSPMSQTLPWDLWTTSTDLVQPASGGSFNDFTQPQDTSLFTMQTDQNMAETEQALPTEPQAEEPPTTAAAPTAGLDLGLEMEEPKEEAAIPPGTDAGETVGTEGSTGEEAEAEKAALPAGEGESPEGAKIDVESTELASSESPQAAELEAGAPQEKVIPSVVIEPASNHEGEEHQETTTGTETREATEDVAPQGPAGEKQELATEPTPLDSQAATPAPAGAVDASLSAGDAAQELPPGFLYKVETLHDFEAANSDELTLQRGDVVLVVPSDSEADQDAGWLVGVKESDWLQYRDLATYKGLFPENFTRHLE
Experimental: as §1
A common characteristic of most binding sites for SH3 domains is the presence of the core amino acid motif PxxP, which is often followed or preceded by a basic Arg residue. […]
The binding site of amphiphysin I has previously been mapped to a single site, site 9 (FIG. 8), within the dynamin I-PRD (Grabs et al. 1997; Vallis et al. 1999). […] However, it is full-length amphiphysin I being detected in the present study. […]

[5] = system: synaptosomes (synaptic vesicle turnover); assay: SV turnover assay (FM2-10 loading/unloading) in synaptosomes; assay type: cell-based, rat
Experimental: (§3) In all SV recycling studies synaptosomes were prepared from rat cerebral cortex by centrifugation on discontinuous percoll gradients (Dunkley et al. 1986). The glutamate release assay was performed as described before (Cousin and Robinson 2000a). Data is presented as Ca^2+-dependent glutamate release, calculated as the difference between release in plus and minus Ca^2+ solutions. Penetratin peptides (Genemed Synthesis) were preincubated with the synaptosomes for 30 min before stimulation and had no effect on Ca^2+-independent release of glutamate.
(§4) Loading of FM2-10 (Molecular Probes) into recycling synaptosomal SVs was measured as previously described. Data is presented as Ca^2+-dependent FM2-10 unloading, which is the difference between release after loading in plus and minus Ca^2+ solutions. Where indicated, synaptosomes were preincubated with penetratin peptide for 30 min prior to stimulation of FM2-10 loading. […] The same assay was used to monitor the effect of penetratin peptide on SV exocytosis. However, in this instance, the synaptosomes were loaded with FM2-10 in plus Ca^2+ Krebs-like solution and, where indicated, were preincubated with penetratin peptide for 30 min prior to stimulation of FM2-10 unloading. Data is presented as Ca^2+-dependent FM2-10 unloading. The SV internalisation assay was performed as previously described.
SVE in synaptosomes was measured to determine whether the phosphorylation sites in dynamin I play a direct role in SVE. Since isolated nerve terminals cannot be transfected with DNA, a membrane-permeable peptide strategy was employed. Mimetic peptides (DynI769-784AA (SEQ ID No. 8) and DynI769-784EE (SEQ ID No. 9)) were designed corresponding to the amino acid sequence of the dynamin I phospho-box (FIG. 5a) and were tagged with a penetratin heptapeptide RRMKWKK (SEQ ID No. 12) to facilitate their delivery into synaptosomes. Briefly, synaptosomes were preincubated in the presence or absence of either penetratin peptide (250 μM) prior to FM2-10 loading stimulated by 30 mM KCl. Accumulated FM2-10 was unloaded by another KCl stimulus (indicated by the solid bar). […] If the phosphorylation-regulated syndapin I interaction itself is essential for SVE, the penetratin-linked peptides may inhibit the process. […] The DynI769-784AA peptide (250 μM) inhibited turnover by more than 40% (57.1±2.1% of control), compared to less than 20% with the DynI769-784EE peptide (250 μM, 81.1±2.4% of control).

[6] = system: synaptosomes (SV exocytosis); assay: KCl-evoked Ca2+-dependent glutamate release assay in synaptosomes; assay type: cell-based, rat; settings: peptide preincubated 30 min; KCl stimulation
Experimental: as §3
A block in SV turnover cannot be ascribed to an inhibition of SVE until an effect on exocytosis has been excluded. Two independent exocytosis assays were conducted to assess this: endogenous glutamate release and FM2-10 unloading. Neither the DynI769-784AA nor DynI769-784EE peptide had any significant effect on KCl-evoked Ca^2+-dependent glutamate release (DynI769-784AA […]±8.4% of control; DynI769-784EE […]±9.5% of control, FIG. 5c). Both peptides had small effects on FM2-10 unloading evoked by 30 mM KCl (DynI769-784AA −81.1±0.8% of control; DynI769-784EE −82.3±0.6% of control, FIG. 5d). Finally, the extent of SVE inhibition by the peptides was quantified by calculating “retrieval efficiency” which takes into account prior exocytosis; a value of less than one indicating a selective SVE inhibition. […]

[7] = system: synaptosomes (SV exocytosis); assay: FM2-10 unloading (SV exocytosis) assay in synaptosomes; assay type: cell-based, rat; settings: evoked by 30 mM KCl; peptide preincubated 30 min before unloading
Experimental: as §4
A block in SV turnover cannot be ascribed to an inhibition of SVE until an effect on exocytosis has been excluded. Two independent exocytosis assays were conducted to assess this: endogenous glutamate release and FM2-10 unloading. […] Finally, the extent of SVE inhibition by the peptides was quantified by calculating “retrieval efficiency” which takes into account prior exocytosis; a value of less than one indicating a selective SVE inhibition. […]

[8] = system: synaptosomes (SV retrieval from the plasma membrane); assay: FM2-10 SV internalisation assay (purified SVs from synaptosomes); assay type: cell-based, rat
Experimental: as §4
If SVE was arrested before SV fission occurred, […]. SVs were purified and their fluorescence values were corrected for dye uptake in the absence of Ca^2+ (Ca^2+-dependent) and normalised to control (n=3, mean ±s.e.m.).

U2OS cells = assay: Transferrin (Tfn) endocytosis (RME) in U2OS cells; assay type: cell-based; settings: 15 min peptide preincubation at various concentrations, Tfn 15 min at 37° C.
Experimental: Briefly, non-neuronal U2OS cells were preincubated with vehicle only or each peptide at various concentrations for 15 min. Cells were then incubated with Tfn for 15 min at 37° C., acid washed, fixed and internalized Tfn was detected by fluorescence microscopy. Quantitative analysis of endocytosis in the presence of different concentrations of the peptides is shown as mean fluorescence as a percent of fluorescence in control cells. The results shown in FIG. 11 are representative of 2 independent experiments. Endocytosis in control cells (no peptide) is expressed as 100%.

## RRAPAVPPARPGSR (listed as Rattus norvegicus) [DynI783-796, Peptide corresponding to site 2 and site 3 region of dynamin I PRD]
[1]
  Syndapin I binding to DynI-PRD: greatly reduced in a concentration-dependent manner
[2]
  inhibitory effect on endophilin I binding (relative to syndapin I): five-fold weaker inhibitory effect
[3]
  effect on binding to p85: little effect
[4]
  peptide concentration needed to inhibit amphiphysin I binding, relative: 10 times higher peptide concentrations
[4]; later judged a non-specific artefact of Arg/Pro-rich peptide
  effect on amphiphysin I binding: inhibitory effect

## DynI769-784EE: Dynamin I phospho-box mimetic peptide (residues 769-784), EE mutant, tagged with penetratin heptapeptide RRMKWKK (RRMKWKKPAGRREPTSEPTPQRR; listed as Rattus norvegicus)
[5]; peptide 250 μM
  inhibition of SV turnover: less than 20%
[5]; peptide 250 μM, 30 min preincubation, FM2-10 loading with 30 mM KCl
  SV turnover: 81.1±2.4 % of control
[5]; using data from either exocytosis assay, value below one = selective SVE inhibition
  retrieval efficiency (SV turnover/exocytosis): little effect
[6]
  KCl-evoked Ca2+-dependent glutamate release: 90.2±9.5 % of control
[7]
  FM2-10 unloading: 82.3±0.6 % of control
[8]
  inhibition of FM2-10 accumulation in SVs: no significant effect
[8]; n=3, mean ± s.e.m.
  FM2-10 accumulation in purified SVs (Ca2+-dependent): 90.7±7.1 % of control
U2OS cells
  endocytosis of transferrin (Tfn), RME: without effect
